{"source": "patent US11685782B2", "about": "“Methods of treating cancer using LSD1 inhibitors in combination with immunotherapy” (Children's Medical Center Corporation, priority 2017, dated 2023)", "key": {"AGO2": {"test_system": "AGO2", "experiment": "Mass spectrometry of lysine methylation on FH-AGO2 purified from MCF-7 cells", "assay_type": "cell-based, human", "settings": "overexpressed FH-AGO2 from MCF-7 cells, mass spectrometry (FIG. 5I)", "excerpt": "FIG. 5I is a picture of immunoblots showing purified FH-AGO2 from MCF-7 cells treated by LSD1 KD or GSK-LSD1 as determined by mass spectrometry for the identification of lysine methylation. sh-Ctrl ([…]; SEQ ID NO: 156) and sh-LSD1, GSK-LSD1(VGK(me)[…]; SEQ ID NO: 157).\nTo investigate whether LSD1 regulates AGO2 stability by controlling AGO2 methylation, overexpressed FH-AGO2 from MCF-7 cells with or without LSD1 inhibition were purified and used for mass spectrometry analysis. […] To validate this finding, an antibody was raised that preferentially recognized AGO2 peptides mono-methylated at K726 (K726me1) compared with un-methylated or di-methylated peptides (FIG. 5J). Furthermore, this antibody detected increased K726me1 on ectopically expressed AGO2 when LSD1 was inhibited, which can be abrogated by substituting K726 with arginine (K726R) or alanine (K726A) (FIGS. 5K and 5L). […] To gain more insights into this regulation, an in vitro demethylation assay was performed using immunoprecipitated FH-LSD1, FH-LSD1-K661A (catalytically compromised LSD1), FH-AGO2 and FH-AGO2-K726R proteins purified from mammalian cells. FH-LSD1 but not FH-LSD1-K661A decreased K726me1 level on FH-AGO2, but had no observable effects on FH-AGO2-K726R (FIGS. 5N and 5O)."}, "MCF-7 cells": {"test_system": "MCF-7 cells", "experiment": "RT-qPCR of selected ERVs, interferons and ISGs in MCF-7 cells treated with GSK-LSD1 (compound screen)", "assay_type": "cell-based, human", "settings": "GSK-LSD1 for 6 days, RT-qPCR normalized to GAPDH, relative to DMSO (FIG. 1A)", "method": "FIG. 1A is a bar graph showing quantitative reverse transcription polymerase chain reaction (RT-qPCR) analysis of selected endogenous retroviruses (ERVs) (HERV-E, HERV-F, HERV-K, HML-2, and ERVL), IFNs (IFN-α, IFN-β and IL-28) and ISGs (ISG15 and OASL) in human MCF-7 breast cancer cells treated with or without GSK-LSD1 for 6 days. The RT-qPCR data were normalized to GAPDH and then relative to DMSO. RT-qPCR was performed in duplicates and repeated two to three times. Error bars represent the standard error of mean (SEM). *p<0.05, **p<0.01, ***p<0.001, ns, not significant, as determined by unpaired t-test.\nMCF-7, T47D, B16, LLC and D4m cells were cultured in normal DMEM supplemented with 10% FBS and 1% penicillin/streptomycin in 5% CO2 incubator at 37° C. All cell lines were cultured in 5% CO2 incubator at 37° C., and passaged every 2-3 days. […]\nAll reagents, buffers and containers used for RNA work were RNase-free grade or treated with 0.1% v/v DEPC (Sigma-Aldrich cat #D5758) if applicable, to eliminate RNase contaminants in this section and other relevant sections. […] The obtained cDNA samples were diluted and used for real-time quantitative PCR (RT-qPCR). […]\nOf note, the PCR primers detected overall transcript levels of the corresponding ERV subfamilies, which may be transcribed from multiple genomic loc. […]"}}, "data": [{"smiles": "Cl.Cl.c1ccc([C@@H]2C[C@H]2NC2CCNCC2)cc1", "note": "(relative stereo) [GSK-LSD1, rel-N-[(1R,2S)-2-Phenylcyclopropyl]-4-Piperidinamine hydrochloride (1:2)]", "values": [{"measurement": "methylation of AGO2 lysine 726 (K726)", "setting": "AGO2", "value": "consistently mono-methylated"}, {"measurement": "up-regulation of selected ERVs, type I and type III interferons and interferon-stimulated genes (ISGs)", "setting": "MCF-7 cells", "value": "significantly induce the up-regulation"}]}]}
